Assay type in all cases: biochemical
In experiment [1] the target is T1, PvPAT1 (Pistacia vera, UniProt Z9K6G7Q8L5).
T1 construct: codon-optimized gene in pET28a, His-tagged, E. coli BL21 (DE3), Ni-NTA
T1 sequence (Z9K6G7Q8L5 1-311): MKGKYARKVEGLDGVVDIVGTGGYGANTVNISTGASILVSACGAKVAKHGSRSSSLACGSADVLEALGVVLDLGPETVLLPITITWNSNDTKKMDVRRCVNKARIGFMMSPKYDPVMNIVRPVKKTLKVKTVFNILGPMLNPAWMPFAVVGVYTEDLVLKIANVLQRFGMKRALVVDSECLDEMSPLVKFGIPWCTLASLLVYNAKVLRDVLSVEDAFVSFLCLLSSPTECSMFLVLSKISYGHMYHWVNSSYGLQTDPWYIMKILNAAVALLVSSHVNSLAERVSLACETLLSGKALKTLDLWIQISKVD
Kind of experiment: coupled pyrophosphate release to NADH oxidation, […] nm; Michaelis-Menten fit. The conditions noted are these: 1 mM PR-PPi, 45 mM imidazole HCl pH 7.4, 30 °C.

In experiment [2] the target is T2, SmPAT1 (Selaginella moellendorffii, UniProt Z9CFY1Y489).
T2 construct: gene PAT1; codon-optimized gene in pET28a, His-tagged, E. coli BL21 (DE3), Ni-NTA
In words: EnzChek pyrophosphate assay (PNP-coupled, […] nm).

The target in experiment [3] is T3, PpPAT1 (Physcomitrium patens, UniProt A9T6I7).
T3 construct: gene LOC112294424; codon-optimized gene in pET28a, His-tagged, E. coli BL21 (DE3), Ni-NTA
Kind of experiment: EnzChek pyrophosphate assay (PNP-coupled, […] nm).

The next experiment concerns the target T4, CsPAT1 (Citrus sinensis, UniProt A0ACB8LSF1).
T4 construct: gene KPL71_006645; codon-optimized gene in pET28a, His-tagged, E. coli BL21 (DE3), Ni-NTA
In words: coupled pyrophosphate release to NADH oxidation, […] nm; substrate inhibition fit. Conditions: 1 mM PR-PPi, 45 mM imidazole HCl pH 7.4, 30 °C.

A further experiment deals with T5, AtPAT1 (Arabidopsis thaliana, UniProt Q02166).
T5 construct: gene PAT1; codon-optimized gene in pET28a, His-tagged, E. coli BL21 (DE3), Ni-NTA
The experiment is described as above. Conditions: 1 mM PR-PPi, 45 mM imidazole HCl pH 7.4, 30 °C.

The target of experiment [4] is T3, PpPAT1. The description is as above. The conditions noted are these: 1 mM PR-PPi, 45 mM imidazole HCl pH 7.4, 30 °C.
For experiment [5], the target named is T2, SmPAT1. Described as above. Conditions: 1 mM PR-PPi, 45 mM imidazole HCl pH 7.4, 30 °C.
The next experiment deals with T6, JrPAT1 (Juglans regia, UniProt A0A6P9ES87).
T6 construct: gene LOC109021987; codon-optimized gene in pET28a, His-tagged, E. coli BL21 (DE3), Ni-NTA
The experiment is described as above. The conditions noted are these: 1 mM PR-PPi, 45 mM imidazole HCl pH 7.4, 30 °C.

Experiment [6] deals with T1, PvPAT1. The description is as above. Conditions: 1 mM PR-PPi, 45 mM imidazole HCl pH 7.4, 30 °C.

Data on 4 compounds can be found in PMC10520873, “Biochemical investigation of the tryptophan biosynthetic enzyme anthranilate phosphoribosyltransferase in plants” (The Journal of Biological Chemistry, 2023).

In the case of `Nc1c(O)cccc1C(=O)O` [3-hydroxyanthranilate], the Michaelis-Menten constant (Km) at PvPAT1 [1] (3-HAA 0-0.5 mM) is 50 ± 5.3 µM.

With `N[C@@H](Cc1ccccc1)C(=O)O` [Phe], the midpoint of inhibition against SmPAT1 [2], the IC50, lay at 1.98 mM.

The compound `N[C@@H](Cc1ccc(O)cc1)C(=O)O` [Tyr] displayed a 50% inhibitory concentration (IC50) at PpPAT1 [3] of 1.18 mM.

Turning to `Nc1ccccc1C(=O)O` [anthranilate], the “Ki” value on CsPAT1 is 4.1 ± 0.6 mM; at AtPAT1 it was 4.3 ± 0.4 mM; at PpPAT1 [4] it was above 5 mM; at SmPAT1 [5], 3.6 ± 0.8 mM; on JrPAT1 it was above 5 mM; on PvPAT1 [6] it was 1.8 ± 0.4 mM. For the same compound, the Km on PvPAT1 [1] (anthranilate 0-0.75 mM) is 32.1 ± 4.7 µM.
